Columns and labels:
Canis familiaris [1] = assay: Increasing effect on vertebral blood flow in anesthetized dogs compared to the effect of trapidil; format: functional, Canis lupus familiaris
Canis familiaris [2] = assay: Increasing effect on femoral blood flow in anesthetized dogs compared to the effect of trapidil; format: functional, Canis lupus familiaris, Artery
Canis familiaris [3] = assay: Compound was tested for its hemodynamic effect for percentage change in coronary blood flow in anesthetized Dogs; format: functional, Canis lupus familiaris, Artery
Canis familiaris [4] = assay: Compound was tested for its hemodynamic effect for percentage change in heart rate in anesthetized Dogs; format: functional, Canis lupus familiaris
Canis familiaris [5] = assay: Compound was tested for its hemodynamic effect for percentage change in mean blood pressure in anesthetized Dogs; format: functional, Canis lupus familiaris
Canis familiaris [6] = assay: Compound was tested for its hemodynamic effect for percentage change in vertebral blood flow in anesthetized dogs; format: functional, Canis lupus familiaris

| Compound | Vertebral blood flow (Canis familiaris [1]) | Femoral blood flow (Canis familiaris [2]) | other results |
| --- | --- | --- | --- |
| Cl.NNS(=O)(=O)c1cccc2cnccc12 | >100 |  |  |
| CN(CCNS(=O)(=O)c1cccc2cnccc12)C1CCCCC1 | 1.7 | 0.83 |  |
| O=[N+]([O-])c1ccc(CNCCNS(=O)(=O)c2cccc3cnccc23)cc1 | 1.5 | 2.5 |  |
| CCCCCCCCN(CCN)S(=O)(=O)c1cccc2cnccc12 | 0.92 |  |  |
| CCCCCCN(CCN)S(=O)(=O)c1cccc2cnccc12 | 0.12 |  | Change (Canis familiaris [3]): 53.6%; Change (Canis familiaris [4]): 2.8%; Change (Canis familiaris [5]): -11.4%; Change (Canis familiaris [6]): 91.4% |
| CCCCCCN(CCCCCC)CCNS(=O)(=O)c1cccc2cnccc12 | 0.48 | 1.2 |  |
| O=S(=O)(NCCNC1CCCCC1)c1cccc2cnccc12 | 1.4 |  |  |
| CN(C)CCNS(=O)(=O)c1cccc2cnccc12 | 1.4 |  |  |
| CCCCCNCCNS(=O)(=O)c1cccc2cnccc12 | 2.4 | 1 |  |
| NCCCNS(=O)(=O)c1cccc2cnccc12 | 5.1 | 3.6 |  |
| CCCCCCCCCCNCCNS(=O)(=O)c1cccc2cnccc12 | 0.49 |  |  |
| NCCCCCCNS(=O)(=O)c1cccc2cnccc12 | 1.4 | 2.4 |  |
| CN(CCN)S(=O)(=O)c1cccc2cnccc12 | 1.6 |  |  |
| O=S(=O)(NCCNCc1ccccc1Cl)c1cccc2cnccc12 | 1.5 | 2.6 |  |
| O=S(=O)(NCCNCc1ccccc1)c1cccc2cnccc12 | 0.57 |  |  |
| CCCCCCNCCNS(=O)(=O)c1cccc2cnccc12 | 0.17 | 0.23 | Change (Canis familiaris [3]): 45.7%; Change (Canis familiaris [4]): 3.9%; Change (Canis familiaris [5]): -16.8%; Change (Canis familiaris [6]): 93.7% |
| O=S(=O)(c1cccc2cnccc12)N(CCNCc1ccccc1)Cc1ccccc1 | 1.8 |  |  |
| CNCCNS(=O)(=O)c1cccc2cnccc12 | 3.7 | 1.7 |  |
| CCNCCN(CC)S(=O)(=O)c1cccc2cnccc12 | 0.78 | 1.1 |  |

| Compound | Vertebral blood flow (Canis familiaris [1]) | Femoral blood flow (Canis familiaris [2]) | other results |
| --- | --- | --- | --- |
| COc1ccc(CNCCNS(=O)(=O)c2cccc3cnccc23)cc1OC | 4.3 | 3.7 |  |
| CC(C)N(CCN)S(=O)(=O)c1cccc2cnccc12 | 3.3 |  |  |
| O=S(=O)(NCCNCc1cccc(Cl)c1)c1cccc2cnccc12 | 0.26 | 0.83 |  |
| CC(C)N(CCNS(=O)(=O)c1cccc2cnccc12)C(C)C | 2.7 |  |  |
| CCCCNCCNS(=O)(=O)c1cccc2cnccc12 | 4.6 | 1.3 |  |
| COc1ccc(CNCCNS(=O)(=O)c2cccc3cnccc23)cc1 | 0.38 | 0.43 |  |
| CCCCCCCCNCCNS(=O)(=O)c1cccc2cnccc12 | 0.53 |  |  |
| CCCNCCNS(=O)(=O)c1cccc2cnccc12 | 2.7 | 1.6 |  |
| O=S(=O)(NCCNCCc1ccccc1)c1cccc2cnccc12 | 0.31 | 0.32 |  |
| NCCNS(=O)(=O)c1cccc2cnccc12 | 1.8 | 2 |  |
| NCCCCNS(=O)(=O)c1cccc2cnccc12 | 4.2 | 2.7 |  |
| CCCCN(CCN)S(=O)(=O)c1cccc2cnccc12 | 0.27 |  |  |
| NCCN(Cc1ccccc1)S(=O)(=O)c1cccc2cnccc12 | 1.92 |  |  |
| CCCCCCN(CCC)CCNS(=O)(=O)c1cccc2cnccc12 | 1.7 | 1.9 |  |
| CNCCN(C)S(=O)(=O)c1cccc2cnccc12 | 1.3 | 1.5 |  |
| CCNCCNS(=O)(=O)c1cccc2cnccc12 | 4.2 | 2.7 |  |
| CCN(CCN)S(=O)(=O)c1cccc2cnccc12 | 1.3 |  |  |
| O=S(=O)(NCCNCc1ccc(Cl)cc1)c1cccc2cnccc12 | 0.25 | 1 |  |
| COc1ccc([C@@H]2Sc3ccccc3N(CCN(C)C)C(=O)[C@@H]2OC(C)=O)cc1 [DILTIAZEM] | 0.15 | 0.21 | Change (Canis familiaris [3]): 91.3%; Change (Canis familiaris [4]): -8%; Change (Canis familiaris [5]): -28.9%; Change (Canis familiaris [6]): 180% |

Source: ChEMBL document CHEMBL1124336, “5-Isoquinolinesulfonamide derivatives. 2. Synthesis and vasodilatory activity of N-(2-aminoethyl)-5-isoquinolinesulfonamide derivatives” (1989)
